Results on 30 compounds are retold here after ChEMBL document CHEMBL4229434, “Design, synthesis, and evaluation of novel l-phenylglycine derivatives as potential PPARγ lead compounds” (Bioorg Med Chem, 2018).

Where “and” joins values, the source holds several entries; their conditions need not be identical. Equal entries are not always repeated.

Test [1] addresses Dipeptidyl peptidase 4 (Homo sapiens) (UniProt P27487). In words: Inhibition of recombinant human C-terminal His-tagged DPP-4 (29 to 766 residues) expressed in Sf9 insect cells at 10 ug/ml using dipeptidyl peptidase […] as substrate incubated for 10 mins followed by substrate addition measured after 40 mins by fluorescence assay relative to control.
The species named for test [2] is Rattus norvegicus. In words: Inhibition of rat small intestine alpha-glucosidase at 10 ug/ml using maltose/glucose as substrate incubated for 10 mins followed by substrate addition measured after 10 mins relative to control.
The target in test [3] is T1, Peroxisome proliferator-activated receptor gamma (Homo sapiens) (UniProt P37231).
T1 sequence (whole entry): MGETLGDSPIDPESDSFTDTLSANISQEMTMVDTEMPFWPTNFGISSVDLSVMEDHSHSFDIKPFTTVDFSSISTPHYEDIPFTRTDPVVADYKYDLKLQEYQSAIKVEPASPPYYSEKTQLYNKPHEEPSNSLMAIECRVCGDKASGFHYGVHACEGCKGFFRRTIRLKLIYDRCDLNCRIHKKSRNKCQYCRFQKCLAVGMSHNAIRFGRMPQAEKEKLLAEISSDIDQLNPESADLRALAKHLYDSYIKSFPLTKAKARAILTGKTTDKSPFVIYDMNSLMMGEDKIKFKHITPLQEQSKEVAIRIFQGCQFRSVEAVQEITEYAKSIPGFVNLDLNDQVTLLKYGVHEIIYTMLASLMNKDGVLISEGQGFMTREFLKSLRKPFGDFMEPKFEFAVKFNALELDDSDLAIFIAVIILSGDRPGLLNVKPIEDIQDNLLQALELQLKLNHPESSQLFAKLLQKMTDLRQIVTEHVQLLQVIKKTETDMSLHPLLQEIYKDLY
Description: Agonist activity at PPARgamma in human HepG2 cells assessed as activation of PPRE at 10 ug/ml incubated for 24 hrs by dual luciferase reporter gene assay relative to control. In kind it is cell-based.

Test [4] has as its target T1, Peroxisome proliferator-activated receptor gamma (Homo sapiens). In words: Agonist activity at PPARgamma in human HepG2 cells assessed as activation of PPRE at 10 ug/ml incubated for 24 hrs by dual luciferase reporter gene assay relative to pioglitazone. In kind it is cell-based.
Test [5] shares this target. Description: Agonist activity at PPARgamma in human HepG2 cells assessed as activation of PPRE at 23.05 umol/L incubated for 24 hrs by dual luciferase reporter gene assay relative to control. In kind it is cell-based.
Test [6] deals with T2, Peroxisome proliferator-activated receptor gamma (Homo sapiens, UniProt P37231).
T2 sequence (P37231 whole entry): T1 sequence (whole entry)
In words: Agonist activity at PPARgamma in human HepG2 cells assessed as activation of PPRE incubated for 24 hrs by dual luciferase reporter gene assay. In kind it is cell-based.

The species named for test [7] is Rattus norvegicus. Description: Inhibition of rat small intestine alpha-glucosidase at 3.74 umol/L using maltose/glucose as substrate incubated for 10 mins followed by substrate addition measured after 10 mins relative to control.

Chain of Dipeptidyl peptidase 4 (Homo sapiens) (P27487 whole entry, looked up, the tested form may be a part): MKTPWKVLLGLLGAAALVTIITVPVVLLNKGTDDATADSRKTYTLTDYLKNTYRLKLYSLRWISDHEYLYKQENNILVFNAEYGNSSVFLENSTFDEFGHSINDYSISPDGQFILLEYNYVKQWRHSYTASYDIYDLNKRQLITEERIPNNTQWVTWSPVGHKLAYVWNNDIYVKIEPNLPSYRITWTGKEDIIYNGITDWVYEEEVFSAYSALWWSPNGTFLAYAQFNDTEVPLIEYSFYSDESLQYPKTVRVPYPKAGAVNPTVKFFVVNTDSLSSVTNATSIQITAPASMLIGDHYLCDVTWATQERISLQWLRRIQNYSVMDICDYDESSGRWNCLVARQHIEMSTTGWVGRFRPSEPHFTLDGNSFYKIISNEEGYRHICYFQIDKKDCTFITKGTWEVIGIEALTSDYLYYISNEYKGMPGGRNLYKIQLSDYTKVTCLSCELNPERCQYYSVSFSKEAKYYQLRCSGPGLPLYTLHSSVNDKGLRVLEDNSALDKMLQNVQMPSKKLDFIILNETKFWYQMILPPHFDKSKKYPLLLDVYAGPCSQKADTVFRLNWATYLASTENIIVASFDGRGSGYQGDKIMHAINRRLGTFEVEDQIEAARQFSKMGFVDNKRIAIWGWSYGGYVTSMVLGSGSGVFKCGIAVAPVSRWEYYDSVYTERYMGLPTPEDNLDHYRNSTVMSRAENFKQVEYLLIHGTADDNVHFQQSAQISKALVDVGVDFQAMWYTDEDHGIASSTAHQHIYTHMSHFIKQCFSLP

`O=C(Cn1cnc2ccccc21)Nc1cccc([C@H](NC(=O)OCc2ccccc2)C(=O)O)c1`: the inhibition is -0.74% in test [1] and 0.99% in the test listed under Rattus norvegicus [2]. For the same compound, the figures for the Activity in test [3] and in test [4] were 3.85% and 4.3%, respectively.
Regarding `COC(=O)[C@@H](NC(=O)OCc1ccccc1)c1cccc(NC(=O)Cn2nnnc2SC)c1`, the Activity in test [3] came to 19.5%; in test [4], 22.4%.
For the compound `O=C(CCl)Nc1cccc([C@H](NC(=O)OCc2ccccc2)C(=O)O)c1`, in the test filed under Rattus norvegicus [2], the inhibition came to 17.7%. Also, the Activity in test [3] was 53.5%; in test [4], 52.8% and 49.1%.
As to `CCOC(=O)[C@@H](NC(=O)OCc1ccccc1)c1cccc(NC(=O)CCl)c1`, the Activity in test [3] is -24.8%; in test [4], -23.9%.
In the case of `CCCCOC(=O)[C@@H](NC(=O)OCc1ccccc1)c1cccc(NC(=O)CCl)c1`, the Activity is -5.01% in test [3] and -5.58% in test [4].
In the same order, the values of `CCC(=O)Nc1cccc([C@H](NC(=O)OCc2ccccc2)C(=O)OC)c1` are 18.3% and 16.5%.
In the same order, the values of `COC(=O)[C@@H](NC(=O)OCc1ccccc1)c1cccc(NC(C)=O)c1` are 24.9% and 21.6%.
As to `CN(CCO)C(=O)[C@@H](NC(=O)OCc1ccccc1)c1cccc(NC(=O)CCl)c1`, the Activity in test [5] is 208%; in test [3], 120%; in test [4], 124%. For the same compound, the EC50 in test [6] is 8.97 µM.
In the case of `O=C(CSc1nc2ccccc2[nH]1)Nc1cccc([C@H](NC(=O)OCc2ccccc2)C(=O)O)c1`, the inhibition is -7.54% in test [1] and 12.6% in the test listed under Rattus norvegicus [2]. Further, the Activity was 32.9% in test [3] and 39.4% in test [4].
Take `COC(=O)[C@@H](NC(=O)OCc1ccccc1)c1cccc(NC(=O)Cn2cnnn2)c1`: the Activity in test [3] was 14.4%; in test [4] it was 14.9%.
As to `O=C(CN1C(=O)c2ccccc2C1=O)Nc1cccc([C@H](NC(=O)OCc2ccccc2)C(=O)O)c1`, the inhibition in the test filed under Rattus norvegicus [2] was 17.8%. The Activity came out at 39.9% in test [3] and 47.4% in test [4].
For `CNC(=O)[C@@H](NC(=O)OCc1ccccc1)c1cccc(NC(=O)CCl)c1`, the Activity in test [3] was -18.8%; in test [4], -17.4%.
As to `COC(=O)[C@@H](NC(=O)OCc1ccccc1)c1cccc(NC(=O)CN2C(=O)c3ccccc3C2=O)c1`, the inhibition in test [1] was found to be 2.17%; in the test listed under Rattus norvegicus [2], 17.5%. Also, the Activity worked out at 11.9% in test [3] and 14.6% in test [4].
In the same order, the values of `Cc1cc(NS(=O)(=O)c2ccc(NCC(=O)Nc3cccc([C@H](NC(=O)OCc4ccccc4)C(=O)O)c3)cc2)no1` are 11.1%, 8.89%, 40.6% and 58.8%.
Taken in the same sequence, the figures for `CC(C)(C)OC(=O)N1CCN(CC(=O)Nc2cccc([C@H](NC(=O)OCc3ccccc3)C(=O)O)c2)CC1` were 5.26%, 13.7%, 21.4% and 27.5%.
With `CCNC(=O)[C@@H](NC(=O)OCc1ccccc1)c1cccc(NC(=O)CCl)c1`, the Activity in test [3] was -20.1%; in test [4] it was -19.3%.
Taken in the same sequence, the figures for `O=C(CCl)Nc1cccc([C@H](NC(=O)OCc2ccccc2)C(=O)NO)c1` were -5.33% and -4.96%.
In the same order, the values of `COC(=O)[C@@H](NC(=O)OCc1ccccc1)c1cccc(NC(=O)Cn2nnnc2C)c1` are 14.4% and 15.4%.
As to `CCCC(=O)Nc1cccc([C@H](NC(=O)OCc2ccccc2)C(=O)OC)c1`, the Activity in test [3] is 12%; in test [4] it was 11.2%.
Consider `COC(=O)[C@@H](NC(=O)OCc1ccccc1)c1cccc(NC(=O)CN2CCN(C(=O)OC(C)(C)C)CC2)c1`, for which the inhibition in test [1] was -6.12%; in the test filed under Rattus norvegicus [2], 15.5%. Also, the Activity in test [3] was -8.27%; in test [4], -10.9%.
For the compound `COC(=O)[C@@H](NC(=O)OCc1ccccc1)c1cccc(NC(=O)CCCl)c1`, the Activity in test [3] was -3.55%; in test [4], -3.5%.
In the same order, the values of `CCCOC(=O)[C@@H](NC(=O)OCc1ccccc1)c1cccc(NC(=O)CCl)c1` are -17.1% and -17.1%.
Consider `COC(=O)[C@@H](NC(=O)OCc1ccccc1)c1cccc(NC(=O)Cn2cnc3ccccc32)c1`, for which the inhibition in test [1] was -0.31%; in the test filed under Rattus norvegicus [2] it was 2.91%. The Activity in test [3] came to 3.93%; in test [4], 4.52%.
With `COC(=O)[C@@H](NC(=O)OCc1ccccc1)c1cccc(NC(=O)CCl)c1`, the EC50 in test [6] was determined as 22.4 µM. For the same compound, the inhibition in test [1] is 16.1%; in the test listed under Rattus norvegicus [2] it was 14.6%. In addition, the Activity in test [3] was 105 to 179%; in test [4], 100%.
On to `COC(=O)[C@@H](NC(=O)OCc1ccccc1)c1cccc(NC(=O)CSc2nc3ccccc3[nH]2)c1`, for which the inhibition in test [1] was found to be 8.99%; in the test listed under Rattus norvegicus [2], 9.26%. Further, the Activity in test [3] is 7.66%; in test [4], -9.41%.
As for `COCC(=O)Nc1cccc([C@H](NC(=O)OCc2ccccc2)C(=O)OC)c1`, the Activity in test [3] was -17.1%; in test [4], -16.1%.
Turning to `OCC(CO)N[C@H]1C[C@](O)(CO)[C@@H](O)[C@H](O)[C@H]1O`, in the test listed under Rattus norvegicus [7], the inhibition turned out to be 104%.
As for `COC(=O)[C@@H](NC(=O)OCc1ccccc1)c1cccc(NC(=O)Cn2nc(C)cc2C)c1`, the results for the Activity in test [3] and in test [4] were 1.36% and 1.49%, respectively.
Consider `COC(=O)[C@@H](NC(=O)OCc1ccccc1)c1cccc(NC(=O)CNc2ccc(S(=O)(=O)Nc3cc(C)on3)cc2)c1`, for which the inhibition in test [1] stood at 5.87%; in the test listed under Rattus norvegicus [2], 11.8%. Further, the Activity stood at 18.9% in test [3] and 27.9% in test [4].
As to `COC(=O)[C@@H](NC(=O)OCc1ccccc1)c1cccc(NC(=O)CCCCl)c1`, the results for the Activity in test [3] and in test [4] were 11.6% and 11.8%, respectively.
